Assay results: US8029770B2 (Rutgers, The State University, priority 2003, dated 2011)

What was measured:
Type in all cases: in vivo, mouse
[1] = system: UVB-induced skin tumors in tumor-bearing SKH-1 mice; test: Growth of UVB-induced skin tumors in tumor-bearing SKH-1 mice
Method: Female SKH-1 mice (7 to 8 weeks old) were treated with 30 mJ/cm^2 of UVB twice a week for 20 weeks. The UVB was stopped for 24 weeks. These tumor-bearing animals were divided into 2 groups (19 mice per group). […] The number (FIG. 1A) and size (FIG. 1B) of the tumors were recorded every 2 weeks.
The radius (r) was determined, and the volume was calculated by: volume=4πr^3/3.
Female SKH-1 mice were treated with 30 mJ/cm^2 of UVB twice a week for 20 weeks and UVB were stopped for 24 weeks. The resulting tumor-bearing animals were divided into 2 groups (19 mice per group). […] The number and size of the tumors were recorded every 2 weeks.

[2] = system: apoptotic sunburn cells in the epidermis of FVB mice; test: UVB-induced apoptotic sunburn cells in FVB mice, topical caffeine; details: 1.2 mg (6.2 μmole) in 100 μL acetone immediately, 0.5 and 2 hours after UVB 60 mJ/cm2; 6 hours
From the text: Apoptotic sunburn cells were identified by changes in morphology and counted.

[3] = system: apoptotic sunburn cells in the epidermis of C57/BL/6J p53(+/+) mice; test: UVB-induced apoptotic sunburn cells in C57/BL/6J p53(+/+) mice, topical caffeine
Method: The time course for apoptosis was determined by utilizing morphologically distinct sunburn cells as the marker for apoptosis. […] Accordingly, studies with a C57/BL/6J mouse were performed with a 60 mJ/cm^2 dose of UVB.
Measurement of apoptotic sunburn cells. Identification of apoptoic sunburn cells was based morphologically on cell shrinkage and nuclear condensation due to fragmentation of the cells. […] The percentage of apoptotic sunburn cells in the epidermis (basal plus suprabasal layers) was calculated from the number of these cells per 100 cells counted from the entire 20 mm length of epidermis for each skin section.

[4] = 4% in 100 mg DERMABASE once a day 5 days a week, 8 weeks (FIG. 1)

Row | Structure (SMILES) | reduction in the number of tumors that developed per mouse vs DERMABASE [1, 4] [fold] | reduction in tumor volume per mouse vs DERMABASE [1, 4] [fold] | number and size of tumors ([1]; 4% in 100 mg DERMABASE, 8 weeks (FIG. 1A, 1B)) | enhancement of UVB-induced increase of apoptotic sunburn cells [2] | enhancement of formation of UVB-induced apoptotic sunburn cells vs UVB plus acetone ([3]; female p53(+/+), 1.2 mg in 100 μL acetone immediately, 0.5 and 2 h after UVB 60 mJ/cm^2, 6 hours after UVB) [%] | effect on apoptosis in non-UVB-treated mice ([3]; female p53(+/+), no UVB) | effect on apoptosis in non-UVB-treated epidermis ([3]; male p53(+/+), no UVB)
1 | Cn1c(=O)c2c(ncn2C)n(C)c1=O.O=C([O-])c1ccccc1.[Na+] [Caffeine Sodium Benzoate, caffeine sodium benzoate] | 2 | ~3 | significantly reduced |  |  |  | 
2 | Cn1c(=O)c2c(ncn2C)n(C)c1=O [Caffeine, caffeine] |  |  |  | 120-150% | 127 | no effect | no effect
